Assay results reported in patent US9790253B2, “OSW-1 analogs and conjugates, and uses thereof” (priority 2011, dated 2017).
Where two headings read alike, the source gives them in different places.

Assays:
[1] = tested on: HCT-116 p21^−/− cells with OSBP1-targeting shRNA; assay: OSBP1 shRNA knockdown/dose-shift experiment; type: cell-based, human; settings: shOSBP1 vs shNT, 72 h
Text: FIG. 3A is a series of four bar graphs depicting knockdown/dose-shift experiment in HCT-116 p21^−/− cells stably transfected with either OSBP1-targeting shRNA (shOSBP1) or non-targeting shRNA (shNT). Bars represent s.d. of three or four individual experiments. * P=0.0002 (n=3); ** P=0.0006 (n=4); *** P=0.0003 (n=3) compared to shNT cells (two-tailed students t-test).
To ascertain if the antiproliferative activity of the ORPphilins depended on the levels of OSBP1 and ORP4L in cells, short hairpin RNA (shRNA) knockdown of OSBP1 expression was performed and then its effect on the growth inhibitory activity of 1, 2, and 4a measured. […] Similar results were obtained in HeLa cells. Overexpression of OSBP1-myc-his or ORP4L-myc-his (FIG. 3C) for 48 h desensitized HeLa cells to the antiproliferative activity of 1, 2, or 4a by ˜2-5-fold (FIG. 3D). However, taxol-induced growth inhibition was not affected by overexpression of OSBP1-myc-his or ORP4L-myc-his (FIG. 3D).

[2] = tested on: OSBP1 localization in A549 cells; assay: OSBP1 localization by immunofluorescence microscopy, A549; type: cell-based, human
Description: Immunofluorescence microscopy. HCT-116 or A549 (adenocarcinomic human alveolar basal epithelial) cells were plated on coverslips in 6-well plates. After 72 h, the culture media was removed and replaced with media containing either compound or vehicle control. At the indicated time-points, the cells were fixed for 10 min using 3.7% formaldehyde in PBS. The coverslips were washed with PBS and permeabilized for 5 min with 0.5% Triton X-100 in PBS. Following PBS washing, the coverslips were blocked for 30 min using Image-iT™ FX (Invitrogen), washed with PBS, and then blocked for 30 min at room temperature (RT) with 1% BSA in PBS (BSA/PBS). The coverslips were then incubated overnight at 4° C. with a primary antibody solution in BSA/PBS. The coverslips were washed with BSA/PBS and incubated for 60 min at RT with Alexa Fluor®-conjugated secondary antibodies (Invitrogen) in BSA/PBS, with the final 30 min including incubation with Hoescht 33258. The coverslips were then washed sequentially with BSA/PBS, PBS, and water and finally mounted on microscope slides using Aqua Poly/Mount (Polysciences Inc.). Imaging data was acquired using Zeiss LSM 510 META scanning confocal microscope.
Perturbations of OSBP1 localization by 1, 2, and 4b in A549 cells were also observed.

[3] = tested on: CERT protein levels in HCT-116 cells or A549 cells; assay: CERT protein levels; type: cell-based, human; settings: high dose (GI90)
Description: Suppression of CERT expression is reported to cause a significant reduction in basal SM biosynthesis. Therefore, 1 and 2 were tested for their ability to induce a reduction in CERT levels, akin to the effects of 1 and 2 on OSBP1 levels.

CHO-K1 cells = assay: Sphingomyelin biosynthesis, [3H]-serine pulse-labeling, CHO-K1; type: cell-based
Description: (§1) Sphingomyelin is biosynthesized from ceramide at the Golgi apparatus. Ceramide is primarily transported from the ER to the Golgi by ceramide transport protein (CERT), and the transport activity of CERT is both OSBP1- and VAP-A dependent. […] To determine whether the ORPphilins affect sphingomyelin synthesis, pulse-labeling with [^3H]-serine was performed in CHO-K1 and HCT-116 cells and the amount of tritium incorporated into sphingomyelin and other lipids then measured. Cells were treated with vehicle or compound for 6 h, and in the last 2 h the cells were pulsed with 10 μCi [^3H]-serine. Lipids were extracted and isolated by TLC, and label incorporation into sphingomyelin was measured by scintillation counting.

NCI-60 = settings: read-out: average GI50 against the NCI-60; cited from earlier work
[4] = tested on: HCT-116 p21^+/+ (wt) cells; assay: Growth inhibition (cell viability assay) of HCT-116 p21+/+ cells; settings: for GI50: HCT-116 p21+/+
Description: (§2) Cell viability assay. Cells were plated into 96-well plates in 75 μL of media. After 24 h, a time-zero plate was produced by adding 25 μL of media and 20 μL of CellTiter-Blue® (Promega) to the wells, followed by incubation at 37° C. for 90 min. Fluorescence (544 nm excitation; 590 nm emission) was detected using a SPECTRAmax® Gemini XS to establish cell viability at time of dosing. Then, compounds were serially diluted in media and delivered to the cells as 4× solutions in 25 μL of media. At either 48 h or 72 h, CellTiter-Blue® was added and the fluorescence was recorded as described above.
(§3) Tasdemir et al. (2002) J Nat Prod 65:210-4. GI50-values of the compounds were determined in HCT-116 p21^+/+ (wt) and p21^−/− cells after 48 h using a resazurin redox dye to measure cell viability.
(§4) Methods are described above in the General Methods section.

tumor xenograft = settings: i.p. 9.3 mg/kg (Q2Dx4); cited from earlier work
HL-60 = settings: cited from earlier work
U87-MG = settings: cited from earlier work
HCT-116 cells = assay: [3H]-serine pulse-labeling, HCT-116; type: cell-based, human; settings: range of concentrations
Description: as §1

[5] = tested on: CLL (chronic lymphocytic leukemia) cells taken from patients; settings: read-out: GI50 fludarabine-refractory CLL cells; cited from earlier work
P388 tumor cells = settings: single i.p. treatment of 0.01 mg/kg; cited from earlier work
[6] = tested on: glioblastoma and leukemia cells; settings: cited from earlier work
normal lymphocytes = settings: cited from earlier work
HCT-116 p21^−/− cells = assay: cells; settings: HCT-116 p21-/-
Description: as §2, §3, §4

A549 cells = assay: cells; type: cell-based, human; settings: A549 cells, 48 h; read-out: GI50 (nM) 48 h
Text: Methods are essentially as described above in the General Methods section in connection with assays using HCT-116 cells.

normal astrocytes = settings: cited from earlier work

With `C[C@@H]1[C@]2(O[C@H]3C=C4[C@@H]5CC[C@H]6Cc7nc8c(nc7C[C@]6(C)[C@H]5C[C@@H](O)[C@]4(C)[C@]31O)C[C@@H]1CC[C@H]3C4=CC[C@@H]5[C@H](C)[C@@]6(OC[C@]45C(=O)C[C@@H]3[C@@]1(C)C8)OC(C)(C)C[C@H]6O)O[C@](C)(CO)C[C@H]2O` [cephalostatin 1, Cephalostatin 1] the “sensitization by OSBP1 knockdown (GI50 shift)” value (“sensitization … (GI50 shift)” for short) [1] was 4 fold, the OSBP1 localization [2] was “induced dispersal or vesiculation of OSBP1” and the “effect on CERT protein levels” value [3] was “did not affect”.
In the case of `C[C@H](CCCC(C)(C)O)[C@H]1CC[C@H]2[C@@H]3CC=C4C[C@@H](O)CC[C@]4(C)[C@H]3CC[C@]12C` [Compound 25-OHC, 25-hydroxycholesterol], the “increase in the biosynthesis of sphingomyelin (SM)” value (CHO-K1 cells; 5 μM, 6 h) is reported as “ca. 4 fold” and the “SM biosynthesis at GI90 dose” value (CHO-K1 cells; 15 μM) is reported as “robust stimulation”.
For schweinfurthin A, the “sensitization … (GI50 shift)” value [1] is listed as 9 fold, the GI50 (NCI-60) is listed as 360 nM and the “fold less cytotoxic than the other ORPphilins” value [4] is listed as 100-300 fold. The toxicity (tumor xenograft) was “without overt toxicity” and the tumor volume (tumor xenograft) was “reduction in tumor volume compared to vehicle-treated controls”.
In the case of `COc1ccc(C(=O)O[C@H]2[C@H](O[C@@H]3[C@@H](OC(C)=O)[C@H](O[C@H]4C[C@H]5[C@@H]6CC=C7C[C@@H](O)CC[C@]7(C)[C@H]6CC[C@]5(C)[C@@]4(O)[C@H](C)C(=O)CCC(C)C)OC[C@@H]3O)OC[C@@H](O)[C@@H]2O)cc1` [OSW-1], the GI50 (HL-60) is given as 0.04 nM, the “times more active in leukemia cells versus normal lymphocytes” value (HL-60) is given as 40 times and the “sensitization … (GI50 shift)” value [1] is given as 6 fold. For the same compound, the GI50 (U87-MG) was 0.047 nM, the “selectivity, malignant brain tumor cells versus normal astrocytes” value (U87-MG) was 150 fold and the GI50 (NCI-60) was 0.78 nM. For the same compound, the ceramide labeling (HCT-116 cells) was “no effect”, the GI50 ([4]; read-out: GI50 (nM) 48 h p21^+/+, 48 h) was 28 nM and the GI50 ([4]; read-out: GI50 (nM) 72 h p21^+/+, 72 h) was 1.6 ± 0.6 nM. The GI50 [5] was 0.3 nM, the increased life span (P388 tumor cells) was 59% and the “fold more cytotoxic toward glioblastoma and leukemia cells than non-transformed astrocytes and lymphocytes” value [6] was 30-150 fold. For the same compound, the GI50 (normal lymphocytes) was 1.73 nM, the OSBP1 localization [2] was “induced dispersal or vesiculation of OSBP1” and the “effect on CERT protein levels” value [3] was “did not affect”. It also gave a GI50 (HCT-116 p21^−/− cells; read-out: GI50 (nM) 48 h p21^−/−, 48 h) of 0.2 ± 0.03 nM, a GI50 (HCT-116 p21^−/− cells; read-out: GI50 (nM) 72 h p21^−/−, 72 h) of 0.04 nM and a GI50 (A549 cells) of 0.5 ± 0.24 nM. For the same compound, the GI50 (normal astrocytes) was 7.13 nM.
